Experiments:
human recombinant PLK4 = human recombinant PLK4 (Homo sapiens (Human), UniProt O00444); assay: PLK4 Biochemical Assay (ADP-Glo); details: 0.5 nM PLK4, 8.0 µM ATP, 4.7 µM MBP, 6 hours at RT
Method: (§1) Activity of human recombinant PLK4 (ThermoFisher, cat #PV6396) was measured by quantification of adenosine diphosphate (ADP) using the ADP-Glo Kinase Assay Kit (Promega, cat #V9102). […] 5 µL of 1.0 nM PLK4 protein in assay buffer (50 mM HEPES, pH 7.5, 0.01% Brij-35, 0.01% BSA, 10 mM MgCl2, 1 mM EGTA, 1 mM DTT) was added to the plates. Test compounds and PLK4 were incubated for 15 minutes at room temperature (RT). […] Reactions were stopped and the remaining ATP depleted by adding 10 µL of ADP-Glo reagent (Promega, cat#V912B) and incubating for 40 minutes at RT. The simultaneous conversion of the remaining ADP to ATP and measurement of the newly synthesized ATP was achieved by addition of 20 µL Kinase Detection reagent (Promega, cat #V914B), incubation for 30 min at RT, and luminescence detection using the EnVision plate reader (PerkinElmer). […] The IC50 values reported in Table 2 were determined using four parameter non-linear regression curve fit.

[1] = target: human recombinant Aurora B (Homo sapiens (Human), UniProt Q96GD4); assay: Aurora B Kinase Biochemical Assay (ADP-Glo); details: ratio of Aurora B IC50 to PLK4 IC50 (selectivity)
Chain of human recombinant Aurora B (Q96GD4 whole entry): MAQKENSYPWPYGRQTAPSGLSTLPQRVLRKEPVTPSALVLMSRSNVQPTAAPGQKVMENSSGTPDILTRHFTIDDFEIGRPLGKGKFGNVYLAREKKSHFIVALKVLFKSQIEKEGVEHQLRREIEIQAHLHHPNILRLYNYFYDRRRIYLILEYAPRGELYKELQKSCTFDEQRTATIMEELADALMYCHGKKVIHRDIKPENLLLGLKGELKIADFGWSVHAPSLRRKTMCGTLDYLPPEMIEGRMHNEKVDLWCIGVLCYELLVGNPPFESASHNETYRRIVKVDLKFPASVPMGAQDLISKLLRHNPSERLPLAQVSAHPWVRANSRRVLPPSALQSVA
Method: as §1, with “Aurora B” for “PLK4”, “#PR9210B)” for “#PV6396)”, “20” for “1.0”, “Aurora B” for “PLK4 protein”, “10uL” for “10 µL”

[2] = target: human recombinant Aurora A (Homo sapiens (Human), UniProt O14965); assay: Aurora A Kinase Biochemical Assay (ADP-Glo); details: ratio of Aurora A IC50 to PLK4 IC50 (selectivity)
Chain of human recombinant Aurora A (O14965 whole entry): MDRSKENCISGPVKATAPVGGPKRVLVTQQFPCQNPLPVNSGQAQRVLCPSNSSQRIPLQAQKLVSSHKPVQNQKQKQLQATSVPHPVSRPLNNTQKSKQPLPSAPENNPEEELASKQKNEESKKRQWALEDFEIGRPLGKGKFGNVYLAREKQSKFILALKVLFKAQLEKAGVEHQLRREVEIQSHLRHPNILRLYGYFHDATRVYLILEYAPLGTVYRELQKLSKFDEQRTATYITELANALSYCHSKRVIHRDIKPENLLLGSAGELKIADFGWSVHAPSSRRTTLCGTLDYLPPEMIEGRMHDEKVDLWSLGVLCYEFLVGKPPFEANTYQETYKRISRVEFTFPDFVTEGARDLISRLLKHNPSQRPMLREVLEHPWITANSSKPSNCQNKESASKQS
Method: as §1, with “Aurora A” for “PLK4”, “#PR5935A)” for “#PV6396)”, “5.0” for “1.0”, “Aurora A” for “PLK4 protein”, “10uL” for “10 µL”

Chain of human recombinant PLK4 (O00444 whole entry): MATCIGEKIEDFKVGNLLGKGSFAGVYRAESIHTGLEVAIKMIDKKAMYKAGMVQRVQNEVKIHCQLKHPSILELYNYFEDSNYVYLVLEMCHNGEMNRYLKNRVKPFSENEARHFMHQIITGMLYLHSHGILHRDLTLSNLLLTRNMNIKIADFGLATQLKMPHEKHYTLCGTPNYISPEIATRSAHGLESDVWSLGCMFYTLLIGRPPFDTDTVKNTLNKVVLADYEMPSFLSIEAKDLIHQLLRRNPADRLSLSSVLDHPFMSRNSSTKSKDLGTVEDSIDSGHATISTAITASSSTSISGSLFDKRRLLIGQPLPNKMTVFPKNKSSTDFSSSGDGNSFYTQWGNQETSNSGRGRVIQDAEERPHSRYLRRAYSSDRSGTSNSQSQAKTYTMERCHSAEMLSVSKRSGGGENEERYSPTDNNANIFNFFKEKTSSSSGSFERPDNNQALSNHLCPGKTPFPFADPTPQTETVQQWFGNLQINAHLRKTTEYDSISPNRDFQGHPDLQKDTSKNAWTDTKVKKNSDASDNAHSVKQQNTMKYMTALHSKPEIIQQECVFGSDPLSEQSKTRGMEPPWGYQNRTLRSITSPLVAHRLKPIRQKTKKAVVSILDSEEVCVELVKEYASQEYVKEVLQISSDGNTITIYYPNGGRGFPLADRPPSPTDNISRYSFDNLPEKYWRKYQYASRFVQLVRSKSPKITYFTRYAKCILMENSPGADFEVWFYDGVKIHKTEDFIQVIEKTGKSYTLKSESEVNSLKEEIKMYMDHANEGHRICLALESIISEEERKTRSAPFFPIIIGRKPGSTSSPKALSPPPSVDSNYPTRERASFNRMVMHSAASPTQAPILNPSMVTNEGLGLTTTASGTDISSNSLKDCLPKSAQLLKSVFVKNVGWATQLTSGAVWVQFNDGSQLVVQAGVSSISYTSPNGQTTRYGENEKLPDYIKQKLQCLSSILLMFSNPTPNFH

IC50 (human recombinant PLK4)	[Aurora B IC50 (nM)]/[PLK4 IC50 (nM)] [1]	[Aurora A IC50 (nM)]/[PLK4 IC50 (nM)] [2]	SMILES
19.1 nM	53.19	253.4031	COc1ccc2c(c1)[C@]1(C[C@H]1c1ccc3c(Nc4nc(Cl)c(OC)c(N5CCOCC5)n4)n[nH]c3c1)C(=O)N2 [Example 49, (1R,2S)-2-(3-{[4-chloro-5-methoxy-6-(morpholin-4-yl)pyrimidin-2-yl]amino}-1H-indazol-6-yl)-5′-metboxyspiro[cydopropane-1,3′-indol]-2′(1′H)-one]
61.7 nM	27.4923	361.809	COc1ccc2c(c1)[C@]1(C[C@H]1c1ccc3c(Nc4cn(CCO)nc4OC)n[nH]c3c1)C(=O)N2 [Example 50, (1R,2S)-2-(3-{[1-(2-hydroxyethyl)-3-methoxy-1H-pyrazol-4-yl]amino}-1H-indazol-6-yl)-S′-methoxyspiro[cyclopropane-1,3′-indol]-2′(1′H)-one]
1.25 nM	251.7986	4028.777	COc1ccc2c(c1)[C@]1(C[C@H]1c1ccc3c(Nc4ncnc(N5CCS(=O)(=O)CC5)c4Cl)n[nH]c3c1)C(=O)N2 [Example 53]
1.25 nM	17.9	3251.804	COc1ccc2c(c1)[C@]1(C[C@H]1c1ccc3c(Nc4ncc(CCO)nc4OC)n[nH]c3c1)C(=O)N2 [Example 55, (lR,2S)-2-(3-{[5-(2-hydroxyethyl)-3-methoxypyrazin-2-yl]amino}-1H-indazol-6-yl)-5′-methozyspiro[cyclopropano-1,3′-indol]-2′(1′H)-one]
8.44 nM	39.23	108.4696	COc1ccc2c(c1)[C@]1(C[C@H]1c1ccc3c(Nc4cc(N5CCS(=O)(=O)CC5)nc(C5CC5)n4)n[nH]c3c1)C(=O)N2 [Example 59, (1R,2S)-2-(3-((2-cyclopropyl-6-(1,1-dioxidothiomorpholino)pyrimidin-4-yl)amino)-1H-indazol-6-yl)-5′-methoxyspiro[cyclopropane-1,3′-indolin]-2′-one]
7.36 nM	7.855	69.69	COc1ccc2c(c1)[C@]1(C[C@H]1c1ccc3c(Nc4cc(N5CCS(=O)(=O)CC5)nc(C)n4)n[nH]c3c1)C(=O)N2 [Example 60, (1R,2S)-2-(3-((6-(1,1-dioxidothiomorpholino)-2-methylpyrimidin-4-yl)amino)-1H-indazol-6-yl)-5′-methoxyspiro[cyclopropane-1,3′-indolin]-2′-one]
72.2 nM	16.69	56.84	COc1ccc2c(c1)[C@]1(C[C@H]1c1ccc3c(Nc4cn(C)nc4C)n[nH]c3c1)C(=O)N2 [Example 63, (1R,2S)-2-{3-[(1,3-dimethyl-1H-pyrazol-4-yl)amino]-1H-indazol-6-yl}-5′-methoxyspiro[cyclopropane-1,3′-indol]-2′(1′H)-one]
87 nM	98.84	210.2116	COc1ccc2c(c1)[C@]1(C[C@H]1c1ccc3c(Nc4cn(C)nc4C(F)(F)F)n[nH]c3c1)C(=O)N2 [Example 64, (1R,2S)-5′-methoxy-2-(3-{[1-methyl-3-(trifluoromethyl)-1H-pyrazol-4-yl]amino)-1H-indazol-6-yl)spiro[cyclopropane-1,3′-indol]-2′(1′H)-one]
44.2 nM	5.356	82.48	COc1ccc2c(c1)[C@]1(C[C@H]1c1ccc3c(Nc4cnn(C)c4)n[nH]c3c1)C(=O)N2 [Example 65]
2340 nM	7.607	21.37	COc1ccc2c(c1)[C@]1(C[C@H]1c1ccc3c(Nc4cn(C)nc4C#N)n[nH]c3c1)C(=O)N2 [Example 66, 4-({6-[(1R,2S)-5′-methoxy-2′-oxo-1′,2′-dihydrospiro[cyclopropane-1,3′-indol]-2-yl]-1H-indazol-3-yl}amino)-1-methyl-1H-pyrazole-3-carbonitrile]
3.31 nM	37.14	293.0556	COc1ccc2c(c1)[C@]1(C[C@H]1c1ccc3c(Nc4cc(C)nn4C)n[nH]c3c1)C(=O)N2 [Example 74]
157 nM	23.28	173.4097	COc1ccc2c(c1)[C@]1(C[C@H]1c1ccc3c(Nc4c(OC)cnn4C)n[nH]c3c1)C(=O)N2 [Example 75, (1R,2S)-5′-methoxy-2-{3-[(4-methoxy-1-methyl-1H-pyrazol-5-yl)amino]-1H-indazol-6-yl}spiro[cyclopropane-1,3′-indol]-2′(1′H)-one]
6.21 nM	38.55	187.8524	COc1ccc2c(c1)[C@]1(C[C@H]1c1ccc3c(Nc4nc(C)cnc4C)n[nH]c3c1)C(=O)N2.O=C(O)C(F)(F)F [Example 82, (1R,2S)-2-{3-[(3,6-dimethylpyrazin-2-yl)amino]-1H-indazol-6-yl}-5′-methoxyspiro[cyclopropane-1,3′-indol]-2′(1′H)-one]
17.8 nM	44.33	1505.334	COc1ccc2c(c1)[C@]1(C[C@H]1c1ccc3c(Nc4nnccc4OC)n[nH]c3c1)C(=O)N2 [Example 90, (1R,2S)-5′-methoxy-2-{3-[(4-methozypyridazin-3-yl)amino]-1H-indazol-6-yl}spiro[cyclopropane-1,3′-indol]-2′(1′H)-one]
8.84 nM	76.36	132.8355	CCn1nc(C2CC2)cc1Nc1n[nH]c2cc([C@@H]3C[C@@]34C(=O)Nc3ccc(OC)cc34)ccc12 [Example 92, (1R,2S)-2-{3-[(3-cyclopropyl-1-ethyl-1H-pyrazol-5-yl)amino]-1H-indazol-6-yl}-5′-methoxyspiro[cyclopropane-1,3′-indol]-2′(1′H)-one]
24.3 nM	1055.053	1733.361	COc1ccc2c(c1)[C@]1(C[C@H]1c1ccc3c(Nc4nc(CC(C)(C)O)nc(N5CCOCC5)c4OC)n[nH]c3c1)C(=O)N2 [Example 93, (1R,2S)-2-(3-{[2-(2-hydroxy-2-methylpropyl)-5-methoxy-6-(morpholin-4-yl)pyrimidin-4-yl]amino}-1H-indazol-6-yl)-5′-methoxyspiro[cyclopropane-1,3′-indol]-2′(1′H)-one]
6.16 nM	74.7	114.7355	COc1ccc2c(c1)[C@]1(C[C@H]1c1ccc3c(Nc4cc(N5CCOCC5)nc(C(C)C)n4)n[nH]c3c1)C(=O)N2 [Example 102, (1R,2S)-5′-methoxy-2-(3-{[6-(morpholin-4-yl)-2-(propan-2-yl)pyrimidin-4-yl]amino}-1H-indazol-6-yl)spiro[cyclopropane-l,3′-indol]-2′(1′H)-one]

SMILES	IC50 (human recombinant PLK4)	[Aurora B IC50 (nM)]/[PLK4 IC50 (nM)] [1]	[Aurora A IC50 (nM)]/[PLK4 IC50 (nM)] [2]
COc1ccc2c(c1)[C@]1(C[C@H]1c1ccc3c(Nc4nn(C)cc4OC)n[nH]c3c1)C(=O)N2 [Example 79, (1R,2S)-5′-methoxy-2-{3-[(4-methoxy-1-methyl-1H-pyrazol-3-yl)amino]-1H-indazol-6-yl}spiro[cyclopropane-1,3′-indol]-2′(rH)-one]	91.9 nM	6.986	210.5378

From US20230365537A1, “POLO LIKE KINASE 4 INHIBITORS” (ORIC Pharmaceuticals, Inc., priority 2021, published 2023)
